IC50 data for 25 molecules are collected here from US20230086703A1, “N-(4-(5-chloropyridin-3-yl)phenyl)-2-(2-(cyclopropanesulfonamido)pyrimidin-4-yl) butanamide derivatives and related compounds as human CTPS1 inhibitors for the treatment of proliferative diseases” (Step Pharma S.A.S., priority 2019, published 2023).

Like-named read-outs stand apart in the source and are kept apart here.

The experiment deals with T1, human CTPS1 (Homo sapiens, UniProt P17812).
T1 construct: FLAG (with GG linker); His8 (with GG linker); purchased Proteros biostructures GmbH
T1 sequence (P17812 1-591): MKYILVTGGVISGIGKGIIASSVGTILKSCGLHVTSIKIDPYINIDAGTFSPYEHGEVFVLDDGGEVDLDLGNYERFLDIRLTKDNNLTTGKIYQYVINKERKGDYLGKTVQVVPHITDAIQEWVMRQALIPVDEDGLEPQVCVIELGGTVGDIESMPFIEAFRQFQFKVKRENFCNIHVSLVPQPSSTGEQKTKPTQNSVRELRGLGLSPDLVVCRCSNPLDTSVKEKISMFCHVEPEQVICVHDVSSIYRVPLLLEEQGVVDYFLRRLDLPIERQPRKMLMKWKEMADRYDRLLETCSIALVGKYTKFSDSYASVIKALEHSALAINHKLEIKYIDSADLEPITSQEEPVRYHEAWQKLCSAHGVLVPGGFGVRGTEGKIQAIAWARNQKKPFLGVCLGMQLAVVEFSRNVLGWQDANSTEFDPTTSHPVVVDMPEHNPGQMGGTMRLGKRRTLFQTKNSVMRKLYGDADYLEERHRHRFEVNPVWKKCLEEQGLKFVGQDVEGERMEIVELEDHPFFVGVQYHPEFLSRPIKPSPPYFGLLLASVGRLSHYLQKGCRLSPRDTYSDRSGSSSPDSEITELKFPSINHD
In words: Human CTPS1 enzyme inhibition, ADP-Glo Max assay. The format is biochemical. On the procedure: The enzyme inhibitory activities of compounds invented against the target of interest were determined using the ADP-Glo™ Max assay (Promega, UK). Assays for human CTPS1 were performed in 1× assay buffer containing 50 mM Tris, 10 mM MgCl2, 0.01% Tween-20, pH to 8.0 accordingly. Finally, immediately before use, L-cysteine was added to the 1× assay buffer to a final concentration of 2 mM. All reagents are from Sigma-Aldrich unless specified otherwise.
3× human CTPS1 protein was prepared in 1× assay buffer to the final working protein concentration required for the reaction. A 2 uL volume per well of 3× human CTPS1 protein was mixed with 2 uL per well of 3× test compound (compound prepared in 1× assay buffer to an appropriate final 3× compound concentration respective to the concentration response curve designed for the compounds under test) for 10 minutes at 25° C. […] ADP-Glo™ Max reagent was added for 60 minutes (6 μL per well) and subsequently ADP-Glo™ Max development reagent was added for 60 minutes (12 uL per well) prior to signal detection in a microplate reader (EnVision® Multilabel Reader, Perkin Elmer). Following each reagent addition over the course of the assay, assay plates were pulse centrifuged for 30 seconds at 500 rpm.
In all cases, the enzyme converts ATP to ADP and the ADP-Glo™ Max reagent subsequently depletes any remaining endogenous ATP in the reaction system. The ADP-Glo™ Max detection reagent converts the ADP that has been enzymatically produced back into ATP and using ATP as a substrate together with luciferin for the enzyme luciferase, light is generated which produces a detectable luminescence. […] The percentage inhibition produced by each concentration of compound was calculated using the equation shown below: […]

Where [1] appears, read: ADP-Glo Max assay, Table 10, read-out: Human CTPS1 Enzyme Inhibition, IC50 grouped by potency range (CTPS1).

On to `CCCOc1cncc(-c2ccc(NC(=O)C(C)(C)c3csc(NS(=O)(=O)C4CC4)n3)cc2)n1` [T55, 2-(2-(cyclopropanesulfonamido)thiazol-4-yl)-2-methyl-N-(4-(6-propoxypyrazin-2-yl)phenyl)propanamide], for which, under setting [1], the IC50 was under 0.1 µM.

Turning to `O=C(Cc1csc(NS(=O)(=O)C2CC2)n1)Nc1ccc(-c2cncnc2)cn1` [T64, 2-(2-(cyclopropanesulfonamido)thiazol-4-yl)-N-(5-(pyrimidin-5-yl)pyridin-2-yl)acetamide], the IC50 under setting [1] was 0.1 to 1 µM.

Regarding `Cc1ccncc1-c1ccc(NC(=O)Cc2csc(NS(=O)(=O)C3CC3)n2)cc1` [T98, 2-(2-(cyclopropanesulfonamido)thiazol-4-yl)-N-(4-(4-methylpyridin-3-yl)phenyl)acetamide], the IC50 under setting [1] was 0.1 to 1 µM.

Regarding `COc1ncc(-c2ccc(NC(=O)C(C)(C)c3csc(NS(=O)(=O)C4CC4)n3)cc2)cc1C` [T251, 2-(2-(cyclopropanesulfonamido)thiazol-4-yl)-N-(4-(6-methoxy-5-methylpyridin-3-yl)phenyl)-2-methylpropanamide], under setting [1], the IC50 lay within 1 to 10 µM.

On to `CC(C)(C(=O)Nc1ccc(-c2cncc(N3CCOCC3)n2)cc1)c1csc(NS(=O)(=O)C2CC2)n1` [T53, 2-(2-(cyclopropanesulfonamido)thiazol-4-yl)-2-methyl-N-(4-(6-morpholinopyrazin-2-yl)phenyl)propanamide], for which the IC50 under setting [1] was in the range of 1 to 10 µM.

`O=C(Cc1csc(NS(=O)(=O)C2CC2)n1)Nc1ccc(-c2ccccc2)nc1` [T66, 2-(2-(cyclopropanesulfonamido)thiazol-4-yl)-N-(6-phenylpyridin-3-yl)acetamide]: the IC50 under setting [1] lay within 0.1 to 1 µM.

Turning to `CC(C)(C(=O)Nc1ccc(-c2cccnc2)nc1)c1csc(NS(=O)(=O)C2CC2)n1` [T116, N-([2,3′-bipyridin]-5-yl)-2-(2-(cyclopropanesulfonamido)thiazol-4-yl)-2-methylpropanamide], the IC50 under setting [1] fell in the range of 0.1 to 1 µM.

As to `CC(C)(C(=O)Nc1ccc(-c2cncc(C#N)c2)cc1)c1csc(NS(=O)(=O)C2CC2)n1` [T47, N-(4-(5-cyanopyridin-3-yl)phenyl)-2-(2-(cyclopropanesulfonamido)thiazol-4-yl)-2-methylpropanamide], under setting [1], the IC50 was under 0.1 µM.

On to `Cc1cc(-c2cncc(Cl)n2)ccc1NC(=O)C(C)(C)c1csc(NS(=O)(=O)C2CC2)n1` [T138, N-(4-(6-chloropyrazin-2-yl)-2-methylphenyl)-2-(2-(cyclopropanesulfonamido)thiazol-4-yl)-2-methylpropanamide], for which the IC50 under setting [1] is under 0.1 µM.

On to `CC(C)(C(=O)Nc1ccc(-c2cncc(C#N)c2)cc1F)c1csc(NS(=O)(=O)C2CC2)n1` [T129, N-(4-(5-cyanopyridin-3-yl)-2-fluorophenyl)-2-(2-(cyclopropanesulfonamido)thiazol-4-yl)-2-methylpropanamide], for which the IC50 under setting [1] is under 0.1 µM.

Turning to `CC(C)(C(=O)Nc1ccc(-c2cncc(OC3CCC3)n2)cn1)c1csc(NS(=O)(=O)C2CC2)n1` [T141, N-(5-(6-cyclobutoxypyrazin-2-yl)pyridin-2-yl)-2-(2-(cyclopropanesulfonamido)thiazol-4-yl)-2-methylpropanamide], the IC50 under setting [1] was 0.1 to 1 µM.

On to `CC(C)Oc1cncc(-c2ccc(NC(=O)C(C)(C)c3csc(NS(=O)(=O)C4CC4)n3)nc2)n1` [T143, 2-(2-(cyclopropanesulfonamido)thiazol-4-yl)-N-(5-(6-isopropoxypyrazin-2-yl)pyridin-2-yl)-2-methylpropanamide], for which the IC50 under setting [1] was under 0.1 µM.

Turning to `CC(C)(C(=O)Nc1ccc(-c2cccc(C(F)(F)F)n2)cc1)c1csc(NS(=O)(=O)C2CC2)n1` [T270, 2-(2-(cyclopropanesulfonamido)thiazol-4-yl)-2-methyl-N-(4-(6-(trifluoromethyl)pyridin-2-yl)phenyl)propanamide], the IC50 under setting [1] was in the range of 0.1 to 1 µM.

For `O=C(Cc1csc(NS(=O)(=O)C2CC2)n1)Nc1ccc(-c2cccnc2)cn1` [T65, N-([3,3′-bipyridin]-6-yl)-2-(2-(cyclopropanesulfonamido)thiazol-4-yl)acetamide], the IC50 under setting [1] was 0.1 to 1 µM.

On to `CC(C)(C(=O)Nc1ccc(-c2cccnc2)c(C#N)c1)c1csc(NS(=O)(=O)C2CC2)n1` [T152, N-(3-cyano-4-(pyridin-3-yl)phenyl)-2-(2-(cyclopropanesulfonamido)thiazol-4-yl)-2-methylpropanamide], for which, under setting [1], the IC50 lay in the range of 0.1 to 1 µM.

As to `COc1cccc(-c2ccc(NC(=O)C(C)(C)c3csc(NS(=O)(=O)C4CC4)n3)cc2)c1` [T28, 2-(2-(cyclopropanesulfonamido)thiazol-4-yl)-N-(3′-methoxy-[1,1′-biphenyl]-4-yl)-2-methylpropanamide], the IC50 under setting [1] lay in the range of 0.1 to 1 µM.

Regarding `CC(C)(C(=O)Nc1ccc(-c2cncc(OCC(F)(F)F)c2)cc1F)c1csc(NS(=O)(=O)C2CC2)n1` [T132, 2-(2-(cyclopropanesulfonamido)thiazol-4-yl)-N-(2-fluoro-4-(5-(2,2,2-trifluoroethoxy)pyridin-3-yl)phenyl)-2-methylpropanamide], the IC50 under setting [1] fell in the range of 0.1 to 1 µM.

Consider `CCOc1cncc(-c2ccc(NC(=O)C3(c4ccnc(NS(=O)(=O)C5CC5)n4)CCN(C(=O)COC)CC3)nc2)n1` [P288], for which the IC50 (Table 12, ADP-Glo Max assay, read-out: CTPS1 (Human CTPS1 Enzyme Inhibition data grouped by potency range)) was under 0.1 µM.

For the molecule `CCOc1cncc(-c2ccc(NC(=O)C(C)(C)c3csc(NS(C)(=O)=O)n3)c(F)c2)n1` [T431, N-(4-(6-ethoxypyrazin-2-yl)-2-fluorophenyl)-2-methyl-2-(2-(methylsulfonamido)thiazol-4-yl)propanamide], under setting [1], the IC50 is under 0.1 µM.

As to `CC(C)(C(=O)Nc1ccc(-c2cncc(C(F)(F)F)n2)cc1)c1csc(NS(=O)(=O)C(C)(C)C)n1` [T305, 2-(2-((1,1-dimethylethyl)sulfonamido)thiazol-4-yl)-2-methyl-N-(4-(6-(trifluoromethyl)pyrazin-2-yl)phenyl)propanamide], under setting [1], the IC50 lay in the range of 0.1 to 1 µM.

For the molecule `Cc1cncc(-c2ccc(NC(=O)Cc3csc(NS(=O)(=O)C4CC4)n3)cc2)c1` [T99, 2-(2-(cyclopropanesulfonamido)thiazol-4-yl)-N-(4-(5-methylpyridin-3-yl)phenyl)acetamide], the IC50 under setting [1] was under 0.1 µM.

In the case of `CC(C)(C(=O)Nc1ccc(-c2cncc(OC(F)F)c2)cn1)c1csc(NS(=O)(=O)C2CC2)n1` [T115, 2-(2-(cyclopropanesulfonamido)thiazol-4-yl)-N-(5′-(difluoromethoxy)-[3,3′-bipyridin]-6-yl)-2-methylpropanamide], the IC50 under setting [1] is under 0.1 µM.

For `CCOc1cncc(-c2cnc(NC(=O)C(C)(C)c3csc(NS(=O)(=O)C4CC4)n3)c(F)c2)n1` [T111, 2-(2-(cyclopropanesulfonamido)thiazol-4-yl)-N-(5-(6-ethoxypyrazin-2-yl)-3-fluoropyridin-2-yl)-2-methylpropanamide], the IC50 under setting [1] is under 0.1 µM.

Turning to `O=C(Cc1csc(NS(=O)(=O)C2CC2)n1)Nc1ccc(-c2cccnc2)nc1` [T67, N-([2,3′-bipyridin]-5-yl)-2-(2-(cyclopropanesulfonamido)thiazol-4-yl)acetamide], the IC50 under setting [1] was in the range of 0.1 to 1 µM.

For `CC(C)(C(=O)Nc1ccc(-c2cccc(OC(F)(F)F)c2)cn1)c1csc(NS(=O)(=O)C2CC2)n1` [T236, 2-(2-(cyclopropanesulfonamido)thiazol-4-yl)-2-methyl-N-(5-(3-(trifluoromethoxy)phenyl)pyridin-2-yl)propanamide], under setting [1], the IC50 was in the range of 0.1 to 1 µM.
